Legend:
[1] = target: T1, BRSK2 (Homo sapiens, UniProt Q8IWQ3); assay: Mammalian kinase profiling (DSTT panel); format: biochemical; settings: 10 μM; average percentage of remaining activity
T1 construct: purchased Division of Signal Transduction Therapy (DSTT), University of Dundee
Procedure: (§1) To assess the selectivity of the aminopyrazole inhibitors, remaining activity at 10 μM concentration was measured for compounds 4f, 4m, and 4y against a panel of 80 human PKs and for compound 9g against 124 human PKs. […] Compound 4m inhibited only two PKs, namely GSK3β and CDK2, at more than 80%.
(§2) Selected compounds were screened against a panel of mammalian kinases routinely run by the Division of Signal Transduction Therapy (DSTT) at the University of Dundee in duplicate at 10 μM.[32] Enzymes included in the panel and assay conditions are reported in the literature. All biochemical assays are run below the Km^app for the ATP for each enzyme, allowing comparison of inhibition across the panel.

[2] = target: T2, PLK1 (Homo sapiens, UniProt P53350); assay: Mammalian kinase profiling (DSTT panel); format: biochemical; settings: 10 μM; average percentage of remaining activity
T2 construct: purchased Division of Signal Transduction Therapy (DSTT), University of Dundee
Procedure: as §1, §2

[3] = target: T3, NEK2a (Homo sapiens, UniProt P51955); assay: Mammalian kinase profiling (DSTT panel); format: biochemical; settings: 10 μM; average percentage of remaining activity
T3 construct: purchased Division of Signal Transduction Therapy (DSTT), University of Dundee
T3 sequence (P51955 1-445): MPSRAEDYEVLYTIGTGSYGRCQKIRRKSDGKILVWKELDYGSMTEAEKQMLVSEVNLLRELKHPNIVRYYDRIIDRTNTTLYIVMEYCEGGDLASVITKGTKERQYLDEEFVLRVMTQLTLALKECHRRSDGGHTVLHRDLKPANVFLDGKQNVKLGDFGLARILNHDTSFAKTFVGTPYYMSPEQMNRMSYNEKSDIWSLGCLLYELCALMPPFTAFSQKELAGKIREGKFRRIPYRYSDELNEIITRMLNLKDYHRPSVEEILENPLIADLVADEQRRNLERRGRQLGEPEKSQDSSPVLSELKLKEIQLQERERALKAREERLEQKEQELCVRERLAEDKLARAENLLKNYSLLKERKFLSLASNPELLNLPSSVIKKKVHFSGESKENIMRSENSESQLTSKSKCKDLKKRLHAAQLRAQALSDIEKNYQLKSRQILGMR
Procedure: as §1, §2

[4] = target: T4, PAK5 (Homo sapiens, UniProt Q9P286); assay: Mammalian kinase profiling (DSTT panel); format: biochemical; settings: 10 μM; average percentage of remaining activity
T4 construct: purchased Division of Signal Transduction Therapy (DSTT), University of Dundee
Procedure: as §1, §2

[5] = target: T5, P38s MAPK (Homo sapiens, UniProt O15264); assay: Mammalian kinase profiling (DSTT panel); format: biochemical; settings: 10 μM; average percentage of remaining activity
T5 construct: purchased Division of Signal Transduction Therapy (DSTT), University of Dundee
Procedure: as §1, §2

[6] = target: T6, RSK1 (Homo sapiens, UniProt Q15418); assay: Mammalian kinase profiling (DSTT panel); format: biochemical; settings: 10 μM; average percentage of remaining activity
T6 construct: purchased Division of Signal Transduction Therapy (DSTT), University of Dundee
Procedure: as §1, §2

[7] = target: T7, PKC zeta (Homo sapiens, UniProt Q05513); assay: Mammalian kinase profiling (DSTT panel); format: biochemical; settings: 10 μM; average percentage of remaining activity
T7 construct: purchased Division of Signal Transduction Therapy (DSTT), University of Dundee
Procedure: as §1, §2

[8] = target: T8, FGF-R1 (Homo sapiens, UniProt P11362); assay: Mammalian kinase profiling (DSTT panel); format: biochemical; settings: 10 μM; average percentage of remaining activity
T8 construct: purchased Division of Signal Transduction Therapy (DSTT), University of Dundee
Procedure: as §1, §2

[9] = target: T9, CHK1 (Homo sapiens, UniProt O14757); assay: Mammalian kinase profiling (DSTT panel); format: biochemical; settings: 10 μM; average percentage of remaining activity
T9 construct: purchased Division of Signal Transduction Therapy (DSTT), University of Dundee
Procedure: as §1, §2

[10] = target: T10, IKKe (Homo sapiens, UniProt Q14164); assay: Mammalian kinase profiling (DSTT panel); format: biochemical; settings: 10 μM; average percentage of remaining activity
T10 construct: purchased Division of Signal Transduction Therapy (DSTT), University of Dundee
Procedure: as §1, §2

[11] = target: T11, TBK1 (Homo sapiens, UniProt Q9UHD2); assay: Mammalian kinase profiling (DSTT panel); format: biochemical; settings: 10 μM; average percentage of remaining activity
T11 construct: purchased Division of Signal Transduction Therapy (DSTT), University of Dundee
Procedure: as §1, §2

[12] = target: T12, MNK2 (Homo sapiens, UniProt Q9HBH9); assay: Mammalian kinase profiling (DSTT panel); format: biochemical; settings: 10 μM; average percentage of remaining activity
T12 construct: purchased Division of Signal Transduction Therapy (DSTT), University of Dundee
Procedure: as §1, §2

[13] = target: T13, NEK6 (Homo sapiens, UniProt Q9HC98); assay: Mammalian kinase profiling (DSTT panel); format: biochemical; settings: 10 μM; average percentage of remaining activity
T13 construct: purchased Division of Signal Transduction Therapy (DSTT), University of Dundee
Procedure: as §1, §2

[14] = target: T14, EF2K (Homo sapiens, UniProt O00418); assay: Mammalian kinase profiling (DSTT panel); format: biochemical; settings: 10 μM; average percentage of remaining activity
T14 construct: purchased Division of Signal Transduction Therapy (DSTT), University of Dundee
Procedure: as §1, §2

[15] = target: T15, PRAK (Homo sapiens, UniProt Q8IW41); assay: Mammalian kinase profiling (DSTT panel); format: biochemical; settings: 10 μM; average percentage of remaining activity
T15 construct: purchased Division of Signal Transduction Therapy (DSTT), University of Dundee
T15 sequence (Q8IW41 1-473): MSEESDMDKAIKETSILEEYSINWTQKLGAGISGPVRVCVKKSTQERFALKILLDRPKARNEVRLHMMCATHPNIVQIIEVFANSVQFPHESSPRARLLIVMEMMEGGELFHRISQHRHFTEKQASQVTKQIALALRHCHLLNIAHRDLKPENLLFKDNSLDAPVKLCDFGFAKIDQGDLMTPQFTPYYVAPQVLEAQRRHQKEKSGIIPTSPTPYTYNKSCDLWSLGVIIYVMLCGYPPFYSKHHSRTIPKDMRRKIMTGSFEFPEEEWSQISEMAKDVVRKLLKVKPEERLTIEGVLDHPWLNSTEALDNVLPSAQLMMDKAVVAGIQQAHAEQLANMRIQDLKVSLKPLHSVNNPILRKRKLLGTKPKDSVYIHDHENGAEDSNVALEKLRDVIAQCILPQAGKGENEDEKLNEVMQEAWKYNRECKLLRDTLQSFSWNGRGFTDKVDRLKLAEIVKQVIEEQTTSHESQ
Procedure: as §1, §2

[16] = target: T16, MARK3 (Homo sapiens, UniProt P27448); assay: Mammalian kinase profiling (DSTT panel); format: biochemical; settings: 10 μM; average percentage of remaining activity
T16 construct: purchased Division of Signal Transduction Therapy (DSTT), University of Dundee
Procedure: as §1, §2

[17] = target: T17, Src (Homo sapiens, UniProt P12931); assay: Mammalian kinase profiling (DSTT panel); format: biochemical; settings: 10 μM; average percentage of remaining activity
T17 construct: purchased Division of Signal Transduction Therapy (DSTT), University of Dundee
Procedure: as §1, §2

[18] = target: T18, PHK (Homo sapiens, UniProt Q16816); assay: Mammalian kinase profiling (DSTT panel); format: biochemical; settings: 10 μM; average percentage of remaining activity
T18 construct: purchased Division of Signal Transduction Therapy (DSTT), University of Dundee
Procedure: as §1, §2

[19] = target: T19, CSK (Homo sapiens, UniProt P41240); assay: Mammalian kinase profiling (DSTT panel); format: biochemical; settings: 10 μM; average percentage of remaining activity
T19 construct: purchased Division of Signal Transduction Therapy (DSTT), University of Dundee
Procedure: as §1, §2

[20] = target: T20, SmMLCK (Homo sapiens, UniProt Q15746); assay: Mammalian kinase profiling (DSTT panel); format: biochemical; settings: 10 μM; average percentage of remaining activity
T20 construct: purchased Division of Signal Transduction Therapy (DSTT), University of Dundee
Procedure: as §1, §2

[21] = system: panel of 80 human PKs; assay: Mammalian kinase profiling, whole panel (4f, 4m, 4y); format: biochemical; settings: 10 μM
Procedure: as §1, §2

[22] = system: IKK; assay: Mammalian kinase profiling (DSTT panel); format: biochemical, human; settings: 10 μM; average percentage of remaining activity
Procedure: as §1, §2

[23] = target: T21, Aurora B (Homo sapiens, UniProt Q96GD4); assay: Mammalian kinase profiling (DSTT panel); format: biochemical; settings: 10 μM; average percentage of remaining activity
T21 construct: purchased Division of Signal Transduction Therapy (DSTT), University of Dundee
Procedure: as §1, §2

[24] = target: T22, PKD1 (Homo sapiens, UniProt Q15139); assay: Mammalian kinase profiling (DSTT panel); format: biochemical; settings: 10 μM; average percentage of remaining activity
T22 construct: purchased Division of Signal Transduction Therapy (DSTT), University of Dundee
Procedure: as §1, §2

[25] = target: T23, MST4 (Homo sapiens, UniProt Q9P289); assay: Mammalian kinase profiling (DSTT panel); format: biochemical; settings: 10 μM; average percentage of remaining activity
T23 construct: purchased Division of Signal Transduction Therapy (DSTT), University of Dundee
Procedure: as §1, §2

[26] = target: T24, PAK6 (Homo sapiens, UniProt Q9NQU5); assay: Mammalian kinase profiling (DSTT panel); format: biochemical; settings: 10 μM; average percentage of remaining activity
T24 construct: purchased Division of Signal Transduction Therapy (DSTT), University of Dundee
Procedure: as §1, §2

[27] = target: T25, IKKb (Homo sapiens, UniProt O14920); assay: Mammalian kinase profiling (DSTT panel); format: biochemical; settings: 10 μM; average percentage of remaining activity
T25 construct: purchased Division of Signal Transduction Therapy (DSTT), University of Dundee
Procedure: as §1, §2

T20 sequence (Q15746 923-1914): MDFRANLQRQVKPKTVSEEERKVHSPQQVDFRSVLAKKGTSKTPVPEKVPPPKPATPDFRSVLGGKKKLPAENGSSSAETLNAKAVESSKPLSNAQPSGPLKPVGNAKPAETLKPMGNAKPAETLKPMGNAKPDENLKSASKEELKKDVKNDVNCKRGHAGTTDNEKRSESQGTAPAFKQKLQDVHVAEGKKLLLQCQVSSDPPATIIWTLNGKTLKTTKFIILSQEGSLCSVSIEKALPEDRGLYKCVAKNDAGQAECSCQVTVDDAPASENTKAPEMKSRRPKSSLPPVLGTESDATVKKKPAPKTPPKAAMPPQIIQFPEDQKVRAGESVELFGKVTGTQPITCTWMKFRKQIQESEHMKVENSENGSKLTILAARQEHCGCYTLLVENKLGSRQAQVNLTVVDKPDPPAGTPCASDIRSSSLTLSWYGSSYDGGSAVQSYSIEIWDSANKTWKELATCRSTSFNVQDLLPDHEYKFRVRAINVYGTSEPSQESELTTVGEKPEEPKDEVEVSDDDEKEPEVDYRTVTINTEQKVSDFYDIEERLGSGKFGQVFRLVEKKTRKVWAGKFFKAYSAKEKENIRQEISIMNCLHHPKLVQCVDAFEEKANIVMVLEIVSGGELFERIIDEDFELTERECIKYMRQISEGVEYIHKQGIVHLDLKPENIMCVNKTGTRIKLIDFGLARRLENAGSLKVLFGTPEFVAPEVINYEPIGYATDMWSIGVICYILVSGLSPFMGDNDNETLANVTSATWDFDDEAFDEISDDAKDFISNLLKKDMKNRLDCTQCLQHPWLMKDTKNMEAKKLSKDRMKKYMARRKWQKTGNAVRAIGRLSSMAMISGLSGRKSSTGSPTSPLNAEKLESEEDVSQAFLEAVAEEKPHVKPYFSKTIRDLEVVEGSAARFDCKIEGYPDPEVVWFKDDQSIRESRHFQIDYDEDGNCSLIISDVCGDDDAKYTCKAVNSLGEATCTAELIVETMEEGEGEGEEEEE
T6 sequence (Q15418 whole entry): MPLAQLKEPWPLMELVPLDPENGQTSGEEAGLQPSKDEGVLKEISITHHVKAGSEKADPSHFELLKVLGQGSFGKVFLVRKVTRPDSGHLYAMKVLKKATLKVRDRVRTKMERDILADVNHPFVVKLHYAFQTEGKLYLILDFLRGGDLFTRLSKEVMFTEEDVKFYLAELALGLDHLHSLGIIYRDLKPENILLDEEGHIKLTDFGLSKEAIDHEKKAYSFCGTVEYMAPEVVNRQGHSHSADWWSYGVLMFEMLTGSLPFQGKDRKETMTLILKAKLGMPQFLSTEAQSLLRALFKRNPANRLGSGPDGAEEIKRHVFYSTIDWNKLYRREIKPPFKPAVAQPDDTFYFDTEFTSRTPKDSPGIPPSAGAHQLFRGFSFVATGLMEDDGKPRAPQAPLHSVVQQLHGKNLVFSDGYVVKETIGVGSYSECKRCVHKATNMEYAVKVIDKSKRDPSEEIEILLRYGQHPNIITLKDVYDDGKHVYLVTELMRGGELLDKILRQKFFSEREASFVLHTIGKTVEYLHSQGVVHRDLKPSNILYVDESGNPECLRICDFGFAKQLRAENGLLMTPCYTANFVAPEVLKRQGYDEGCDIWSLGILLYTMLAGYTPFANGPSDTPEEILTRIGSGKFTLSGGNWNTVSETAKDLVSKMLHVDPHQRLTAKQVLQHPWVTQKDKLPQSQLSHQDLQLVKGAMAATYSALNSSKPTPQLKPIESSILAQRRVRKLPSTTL
T4 sequence (Q9P286 whole entry): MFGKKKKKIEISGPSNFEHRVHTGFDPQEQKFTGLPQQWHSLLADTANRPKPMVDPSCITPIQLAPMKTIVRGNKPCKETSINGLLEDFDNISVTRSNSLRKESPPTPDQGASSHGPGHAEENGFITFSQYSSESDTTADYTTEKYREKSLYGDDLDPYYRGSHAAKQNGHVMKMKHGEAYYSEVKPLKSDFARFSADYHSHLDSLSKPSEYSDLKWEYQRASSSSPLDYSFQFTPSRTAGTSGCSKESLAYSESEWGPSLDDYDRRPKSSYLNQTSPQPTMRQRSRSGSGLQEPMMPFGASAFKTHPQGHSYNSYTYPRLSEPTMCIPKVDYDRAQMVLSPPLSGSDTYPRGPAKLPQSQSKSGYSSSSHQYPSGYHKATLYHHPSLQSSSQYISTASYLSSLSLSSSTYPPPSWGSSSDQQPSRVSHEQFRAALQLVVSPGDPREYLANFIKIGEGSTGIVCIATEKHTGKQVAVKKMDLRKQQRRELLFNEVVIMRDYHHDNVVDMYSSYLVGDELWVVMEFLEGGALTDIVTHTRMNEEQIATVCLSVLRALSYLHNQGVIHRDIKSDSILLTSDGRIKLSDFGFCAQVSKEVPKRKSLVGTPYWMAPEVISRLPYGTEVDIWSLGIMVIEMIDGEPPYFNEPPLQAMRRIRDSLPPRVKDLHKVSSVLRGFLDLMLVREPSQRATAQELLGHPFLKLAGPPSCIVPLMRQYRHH
T8 sequence (P11362 22-822): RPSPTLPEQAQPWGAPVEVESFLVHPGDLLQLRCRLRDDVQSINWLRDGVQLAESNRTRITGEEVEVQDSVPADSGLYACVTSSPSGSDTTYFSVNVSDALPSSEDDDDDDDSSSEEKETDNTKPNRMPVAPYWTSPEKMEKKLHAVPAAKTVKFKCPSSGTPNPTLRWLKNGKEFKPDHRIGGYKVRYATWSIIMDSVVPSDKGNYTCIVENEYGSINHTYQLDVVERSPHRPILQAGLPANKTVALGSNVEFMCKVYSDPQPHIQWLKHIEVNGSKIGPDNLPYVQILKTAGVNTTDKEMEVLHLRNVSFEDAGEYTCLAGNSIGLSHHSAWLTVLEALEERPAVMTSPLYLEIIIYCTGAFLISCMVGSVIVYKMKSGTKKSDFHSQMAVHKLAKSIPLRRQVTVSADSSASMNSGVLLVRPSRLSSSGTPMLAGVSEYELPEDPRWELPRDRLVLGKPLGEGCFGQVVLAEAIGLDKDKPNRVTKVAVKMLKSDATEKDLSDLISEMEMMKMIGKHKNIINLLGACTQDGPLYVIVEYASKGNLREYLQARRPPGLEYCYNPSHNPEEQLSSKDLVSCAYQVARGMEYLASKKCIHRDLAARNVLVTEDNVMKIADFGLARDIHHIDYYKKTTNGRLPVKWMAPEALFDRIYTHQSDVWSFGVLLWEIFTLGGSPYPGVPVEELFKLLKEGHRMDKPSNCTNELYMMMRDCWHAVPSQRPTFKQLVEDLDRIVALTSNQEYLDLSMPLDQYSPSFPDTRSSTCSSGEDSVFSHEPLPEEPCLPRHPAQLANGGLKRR
T9 sequence (O14757 whole entry): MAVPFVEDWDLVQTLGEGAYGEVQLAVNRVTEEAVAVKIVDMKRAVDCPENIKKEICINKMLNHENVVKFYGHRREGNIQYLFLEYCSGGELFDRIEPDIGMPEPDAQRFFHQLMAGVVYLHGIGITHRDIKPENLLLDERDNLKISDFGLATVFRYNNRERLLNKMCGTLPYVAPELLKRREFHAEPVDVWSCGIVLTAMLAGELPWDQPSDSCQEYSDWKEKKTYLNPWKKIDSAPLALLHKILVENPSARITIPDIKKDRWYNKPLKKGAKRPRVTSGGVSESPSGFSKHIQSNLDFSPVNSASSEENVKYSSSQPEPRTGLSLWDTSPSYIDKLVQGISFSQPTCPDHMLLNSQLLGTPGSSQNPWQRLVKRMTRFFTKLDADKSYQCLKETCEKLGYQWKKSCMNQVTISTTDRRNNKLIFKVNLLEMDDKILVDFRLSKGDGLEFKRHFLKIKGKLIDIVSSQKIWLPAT
T13 sequence (Q9HC98 whole entry): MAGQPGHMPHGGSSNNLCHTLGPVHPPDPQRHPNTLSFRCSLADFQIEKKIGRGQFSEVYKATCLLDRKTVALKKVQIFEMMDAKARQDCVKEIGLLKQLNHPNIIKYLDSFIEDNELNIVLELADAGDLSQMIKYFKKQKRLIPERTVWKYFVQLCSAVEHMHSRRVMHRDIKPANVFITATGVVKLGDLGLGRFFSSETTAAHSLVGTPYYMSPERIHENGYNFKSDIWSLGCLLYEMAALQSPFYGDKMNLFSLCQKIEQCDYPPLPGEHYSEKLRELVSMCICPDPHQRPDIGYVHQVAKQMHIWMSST
T7 sequence (Q05513 whole entry): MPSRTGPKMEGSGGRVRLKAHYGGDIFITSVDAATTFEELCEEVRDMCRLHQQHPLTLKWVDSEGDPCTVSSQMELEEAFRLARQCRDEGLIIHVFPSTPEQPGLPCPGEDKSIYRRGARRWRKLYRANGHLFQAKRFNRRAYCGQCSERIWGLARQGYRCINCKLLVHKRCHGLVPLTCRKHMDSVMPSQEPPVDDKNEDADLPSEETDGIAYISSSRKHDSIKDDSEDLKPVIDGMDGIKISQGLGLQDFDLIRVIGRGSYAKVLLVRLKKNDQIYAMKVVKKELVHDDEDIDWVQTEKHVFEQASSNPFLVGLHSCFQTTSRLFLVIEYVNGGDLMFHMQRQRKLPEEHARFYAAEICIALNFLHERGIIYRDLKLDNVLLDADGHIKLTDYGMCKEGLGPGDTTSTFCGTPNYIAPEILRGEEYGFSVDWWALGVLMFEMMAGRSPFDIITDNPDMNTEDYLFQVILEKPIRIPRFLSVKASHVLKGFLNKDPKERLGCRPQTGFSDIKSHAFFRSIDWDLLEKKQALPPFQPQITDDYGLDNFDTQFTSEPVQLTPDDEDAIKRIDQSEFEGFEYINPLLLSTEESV
T18 sequence (Q16816 whole entry): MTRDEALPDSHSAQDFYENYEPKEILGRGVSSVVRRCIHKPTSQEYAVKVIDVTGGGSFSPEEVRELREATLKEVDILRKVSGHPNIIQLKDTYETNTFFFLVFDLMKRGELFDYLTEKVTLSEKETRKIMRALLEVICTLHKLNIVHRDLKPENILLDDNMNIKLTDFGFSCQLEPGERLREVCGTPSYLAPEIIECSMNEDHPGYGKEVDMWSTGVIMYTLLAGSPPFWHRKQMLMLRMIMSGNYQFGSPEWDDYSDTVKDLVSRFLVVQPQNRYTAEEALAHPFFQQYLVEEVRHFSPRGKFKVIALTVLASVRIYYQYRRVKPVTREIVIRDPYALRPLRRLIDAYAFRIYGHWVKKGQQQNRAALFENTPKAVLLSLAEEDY

Structure (SMILES) | BRSK2 activity compared to the control [1] [%] | PLK1 activity compared to the control [2] [%] | NEK2a activity compared to the control [3] [%] | PAK5 activity compared to the control [4] [%] | P38s MAPK activity compared to the control [5] [%] | RSK1 activity compared to the control [6] [%] | PKC zeta activity compared to the control [7] [%] | FGF-R1 activity compared to the control [8] [%] | CHK1 activity compared to the control [9] [%] | IKKe activity compared to the control [10] [%] | TBK1 activity compared to the control [11] [%] | MNK2 activity compared to the control [12] [%] | NEK6 activity compared to the control [13] [%] | EF2K activity compared to the control [14] [%] | PRAK activity compared to the control [15] [%] | MARK3 activity compared to the control [16] [%] | Src activity compared to the control [17] [%] | PHK activity compared to the control [18] [%] | SmMLCK activity compared to the control [20] [%] | IKK activity compared to the control [22] [%] | other results
CO[C@H]1CC[C@H](NC(=O)c2n[nH]cc2NC(=O)c2ccccc2)CC1 [Compound 4f, 4-Benzamido-N-(4-methoxycyclohexyl)-1H-pyrazole-3-carboxamide] | 55 | 100 | 100 | 68 | 57 | 74 | 57 | 99 | 100 | 62 | 63 | 100 | 100 | 99 | 52 | 84 | 98 | 89 | 25 | 68 | CSK activity compared to the control [19]: 85%; number of PKs inhibited by more than 80% [21]: seven
COc1cccc(OC)c1C(=O)Nc1c[nH]nc1C(=O)NC1CCC(OC)CC1 (stereo not drawn) [Compound 4m, 4-(2,6-Dimethoxybenzamido)-N-(4-methoxycyclohexyl)-1H-pyrazole-3-carboxamide] |  |  | 99 | 75 |  | 70 |  |  |  |  |  |  |  |  | 92 |  |  |  | 65 | 90 | Aurora B activity compared to the control [23]: 87%; PKD1 activity compared to the control [24]: 59%; MST4 activity compared to the control [25]: 49%; PAK6 activity compared to the control [26]: 90%; IKKb activity compared to the control [27]: 100%; number of PKs inhibited by more than 80% [21]: two
CO[C@H]1CC[C@H](NC(=O)c2n[nH]cc2NC(=O)c2ccc(-c3ccccc3)o2)CC1 [Compound 4y, N-(4-Methoxycyclohexyl)-4-(5-phenylfuran-2-carboxamido)-1H-pyrazole-3-carboxamide] | 60 | 99 | 69 | 47 | 38 | 54 | 60 | 72 | 94 | 46 | 73 | 77 | 70 | 92 | 65 | 83 | 85 | 45 | 23 | 71 | Aurora B activity compared to the control [23]: 47%; PKD1 activity compared to the control [24]: 59%; MST4 activity compared to the control [25]: 30%; PAK6 activity compared to the control [26]: 71%; IKKb activity compared to the control [27]: 36%; CSK activity compared to the control [19]: 73%

— publication PMC4175002, “The Design and Synthesis of Potent and Selective Inhibitors of Trypanosoma brucei Glycogen Synthase Kinase 3 for the Treatment of Human African Trypanosomiasis” (Journal of Medicinal Chemistry, 2014)
